Experimental data as given in patent US8247211B2, “Glycopeptide antibiotics” (American Cyanamid Company, priority 2001, dated 2012).

Assays:
Assay in all cases: In vitro antibacterial evaluation: minimum inhibitory concentration (MIC), broth dilution method
Assay type in all cases: cell-based
Escherichia coli [1] = system: Escherichia coli
Staphylococcus sp. = conditions: 18 hours at 35° C.
Procedure, shortened: (§1)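 Values are minimum inhibitory concentrations, meaning the smallest antibiotic concentration that stops growth of the organism. They come from broth dilution in Muller-Hinton II […] per NCCLS guidance (M7-A2), using 5×10^5 CFU/mL and concentrations from 64 to 0.06 μg/mL.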

Escherichia coli [2] = system: Escherichia coli; remark: listed apart in the source
Procedure, shortened: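 First, organisms are seeded at 5×10^5 CFU/mL into Muller-Hinton II […]. Next, antibiotic is applied across 64-0.06 μg/mL by broth dilution (NCCLS M7-A2). Finally, the lowest inhibitory concentration is recorded as MIC.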

Enterococcus sp. = system: Enterococcus sp.
Procedure, shortened: as §1

Streptococcus sp. = conditions: 18 hours at 35° C.
Procedure, shortened: as §1

α-O-[(Benzylamino)carbonyl]-cyclo[glycyl-β-methylphenylalanyl-O-(4-O-hexopyranosylhexopyranosyl)tyrosyl-3(2-iminoimidazolidin-4-yl)seryl-3-(3-hexopyranosyl-2-iminoimidazolidin-4-yl)serylseryl] [Example 257]
MIC Escherichia coli (ATCC 25922) (Escherichia coli [1]): >0.5 µg/mL | MIC Coagulase Negative Staphylococcus (GC 4547) (Staphylococcus sp.; Coagulase Negative Staphylococcus (GC 4547)): 2 µg/mL | MIC Coagulase Negative Staphylococcus (GC 4548) (Staphylococcus sp.; Coagulase Negative Staphylococcus (GC 4548)): 2 µg/mL | MIC Coagulase Negative Staphylococcus (GC 4549) (Staphylococcus sp.; Coagulase Negative Staphylococcus (GC 4549)): 2 µg/mL | MIC Coagulase Negative Staphylococcus (GC 4551) (Staphylococcus sp.; Coagulase Negative Staphylococcus (GC 4551)): 8 µg/mL | MIC Coagulase Negative Staphylococcus (GC 6257) (Staphylococcus sp.; Coagulase Negative Staphylococcus (GC 6257)): 1 µg/mL | MIC Staphylococcus aureus (ATCC 29213) (Staphylococcus sp.; Staphylococcus aureus (ATCC 29213)): 0.5 µg/mL | MIC Staphylococcus aureus (GC 1131) (Staphylococcus sp.; Staphylococcus aureus (GC 1131)): 0.5 µg/mL | MIC Staphylococcus aureus (GC 3051) (Staphylococcus sp.; Staphylococcus aureus (GC 3051)): 0.5 µg/mL | MIC Staphylococcus aureus (GC 3053) (Staphylococcus sp.; Staphylococcus aureus (GC 3053)): 0.5 µg/mL | MIC Staphylococcus aureus (GC 4541) (Staphylococcus sp.; Staphylococcus aureus (GC 4541)): 0.5 µg/mL | MIC Staphylococcus aureus (GC 4542) (Staphylococcus sp.; Staphylococcus aureus (GC 4542)): 0.5 µg/mL | MIC Staphylococcus aureus (GC 4544) (Staphylococcus sp.; Staphylococcus aureus (GC 4544)): 0.5 µg/mL | MIC Staphylococcus aureus (GC 4545) (Staphylococcus sp.; Staphylococcus aureus (GC 4545)): 0.5 µg/mL | MIC Staphylococcus aureus-SMITH (GC 4543) (Staphylococcus sp.; Staphylococcus aureus-SMITH (GC 4543)): 0.5 µg/mL | MIC Staphylococcus haemolyticus (GC 4546) (Staphylococcus sp.; Staphylococcus haemolyticus (GC 4546)): 2 µg/mL | MIC Staphylococcus aureus (ATCC 29213) (Staphylococcus sp.; broth dilution, strain ATCC 29213): 0.5 µg/mL | MIC Staphylococcus aureus (GC 1131) (Staphylococcus sp.; broth dilution, strain GC 1131): 0.5 µg/mL | MIC Staphylococcus aureus (GC 3051) (Staphylococcus sp.; broth dilution, strain GC 3051): 0.5 µg/mL | MIC Staphylococcus aureus (GC 3053) (Staphylococcus sp.; broth dilution, strain GC 3053): 0.5 µg/mL | MIC Staphylococcus aureus (GC 4541) (Staphylococcus sp.; broth dilution, strain GC 4541): 0.5 µg/mL | MIC Staphylococcus aureus (GC 4542) (Staphylococcus sp.; broth dilution, strain GC 4542): 0.5 µg/mL | MIC Staphylococcus aureus (GC 4544) (Staphylococcus sp.; broth dilution, strain GC 4544): 0.5 µg/mL | MIC Staphylococcus aureus (GC 4545) (Staphylococcus sp.; broth dilution, strain GC 4545): 0.5 µg/mL | MIC Escherichia coli (GC 4559) (Escherichia coli [2]; Escherichia coli (GC 4559)): >0.5 µg/mL | MIC Escherichia coli (GC 4560) (Escherichia coli [2]; Escherichia coli (GC 4560)): 0.5 µg/mL | MIC Enterococcus avium (GC 4558) (Enterococcus sp.; Enterococcus avium (GC 4558)): 0.5 µg/mL | MIC Enterococcus faecalis (ATCC 29212) (Enterococcus sp.; Enterococcus faecalis (ATCC 29212)): 0.5 µg/mL | MIC Enterococcus faecalis (GC 2242) (Enterococcus sp.; Enterococcus faecalis (GC 2242), 18 hours at 35° C.): 0.5 µg/mL | MIC Enterococcus faecalis (GC 2691) (Enterococcus sp.; Enterococcus faecalis (GC 2691), 18 hours at 35° C.): 0.5 µg/mL | MIC Enterococcus faecalis (GC 3059) (Enterococcus sp.; Enterococcus faecalis (GC 3059), 18 hours at 35° C.): 0.5 µg/mL | MIC Enterococcus faecalis (GC 4552) (Enterococcus sp.; Enterococcus faecalis (GC 4552), 18 hours at 35° C.): >0.5 µg/mL | MIC Enterococcus faecalis (GC 4553) (Enterococcus sp.; Enterococcus faecalis (GC 4553)): 0.5 µg/mL | MIC Enterococcus faecalis (GC 4554) (Enterococcus sp.; Enterococcus faecalis (GC 4554)): >0.5 µg/mL | MIC Enterococcus faecalis (GC 6189) (Enterococcus sp.; Enterococcus faecalis (GC 6189)): 0.5 µg/mL | MIC Enterococcus faecium (GC 2243) (Enterococcus sp.; Enterococcus faecium (GC 2243)): 16 µg/mL | MIC Enterococcus faecium (GC 4556) (Enterococcus sp.; Enterococcus faecium (GC 4556)): 16 µg/mL | MIC Enterococcus faecium (GC 4557) (Enterococcus sp.; Enterococcus faecium (GC 4557)): 2 µg/mL | MIC Enterococcus faecalis (ATCC 29212) (Enterococcus sp.; broth dilution, 18 hours at 35° C., strain ATCC 29212): 0.5 µg/mL | MIC Enterococcus faecalis (GC 2242) (Enterococcus sp.; broth dilution, 18 hours at 35° C., strain GC 2242): 0.5 µg/mL | MIC Enterococcus faecium (GC 2243) (Enterococcus sp.; broth dilution, 18 hours at 35° C., strain GC 2243): 16 µg/mL | MIC Enterococcus faecalis (GC 2691) (Enterococcus sp.; broth dilution, 18 hours at 35° C., strain GC 2691): 0.5 µg/mL | MIC Enterococcus faecalis (GC 3059) (Enterococcus sp.; broth dilution, 18 hours at 35° C., strain GC 3059): 0.5 µg/mL | MIC Enterococcus faecalis (GC 4552) (Enterococcus sp.; broth dilution, 18 hours at 35° C., strain GC 4552): >0.5 µg/mL | MIC Enterococcus faecalis (GC 4553) (Enterococcus sp.; broth dilution, 18 hours at 35° C., strain GC 4553): 0.5 µg/mL | MIC Enterococcus faecalis (GC 4554) (Enterococcus sp.; broth dilution, 18 hours at 35° C., strain GC 4554): >0.5 µg/mL | MIC Enterococcus faecium (GC 4556) (Enterococcus sp.; broth dilution, 18 hours at 35° C., strain GC 4556): 16 µg/mL | MIC Enterococcus faecium (GC 4557) (Enterococcus sp.; broth dilution, 18 hours at 35° C., strain GC 4557): 2 µg/mL | MIC Enterococcus avium (GC 4558) (Enterococcus sp.; broth dilution, 18 hours at 35° C., strain GC 4558): 0.5 µg/mL | MIC Enterococcus faecalis (GC 6189) (Enterococcus sp.; broth dilution, 18 hours at 35° C., strain GC 6189): 0.5 µg/mL | MIC Streptococcus agalactiae (GC 4564) (Streptococcus sp.; Streptococcus agalactiae (GC 4564)): 2 µg/mL | MIC Streptococcus pneumoniae (ATCC 6301) (Streptococcus sp.; Streptococcus pneumoniae (ATCC 6301)): 0.25 µg/mL | MIC Streptococcus pneumoniae (GC 1894) (Streptococcus sp.; Streptococcus pneumoniae (GC 1894)): 0.25 µg/mL | MIC Streptococcus pneumoniae (GC 4565) (Streptococcus sp.; Streptococcus pneumoniae (GC 4565)): 1 µg/mL | MIC Streptococcus pyogenes (GC 4563) (Streptococcus sp.; Streptococcus pyogenes (GC 4563)): 0.12 µg/mL | MIC Streptococcus pneumoniae (ATCC 6301) (Streptococcus sp.; broth dilution, strain ATCC 6301): 0.25 µg/mL | MIC Streptococcus pneumoniae (GC 1894) (Streptococcus sp.; broth dilution, strain GC 1894): 0.25 µg/mL | MIC Streptococcus pyogenes (GC 4563) (Streptococcus sp.; broth dilution, strain GC 4563): 0.12 µg/mL | MIC Streptococcus agalactiae (GC 4564) (Streptococcus sp.; broth dilution, strain GC 4564): 2 µg/mL | MIC Streptococcus pneumoniae (GC 4565) (Streptococcus sp.; broth dilution, strain GC 4565): 1 µg/mL
